Patent publication US20200131669A1, “CYCLIC PEPTIDE COMPOUND HAVING HIGH MEMBRANE PERMEABILITY, AND LIBRARY CONTAINING SAME” (Chugai Seiyaku Kabushiki Kaisha, priority 2017, published 2020)
Starred links: 1 amine or outer side, 2 acyl side, 3 side chain; linkers in the order of their positions; H or OH if unused. Positions of bridges follow the written chain, without caps; N, C: chain ends. Non-standard residues stand in square brackets, D forms with d. Residues, ends and D or L forms follow the SMILES beside them. *: point of attachment. NMeAbu(3,3-F2-piperidino) = CN[C@@H](CCN1CCCC(F)(F)C1)C(=O)O; Phe(4-CF3) = N[C@@H](Cc1ccc(C(F)(F)F)cc1)C(=O)O; NMeAla(4-thiazolyl) = CN[C@@H](Cc1cscn1)C(=O)O; NMePhe(3-Cl) = CN[C@@H](Cc1cccc(Cl)c1)C(=O)O; Tyr(3-F) = N[C@@H](Cc1ccc(O)c(F)c1)C(=O)O; X14 = O=C([C@H](CCc1ccccc1Cl)N[*:1])[*:2]; X5 = O=C(C(CCc1noc(=O)[nH]1)N[*:1])[*:2]; Gly(NCH2CH2Ph) = O=C(O)CNCCc1ccccc1; X9 = O=C(CN(CCOc1ccccc1)[*:1])[*:2]; NMeF = CN[C@@H](Cc1ccccc1)C(=O)O; NMeI = CC[C@H](C)[C@H](NC)C(=O)O; 3Pal = N[C@@H](Cc1cccnc1)C(=O)O; NMeL = CN[C@@H](CC(C)C)C(=O)O; NMeV = CN[C@H](C(=O)O)C(C)C; NMeAbu = CC[C@H](NC)C(=O)O; NMeA = CN[C@@H](C)C(=O)O; Piperidide = C1CCN(*)CC1; dNMeA = CN[C@H](C)C(=O)O; Abu = CC[C@H](N)C(=O)O; Me2NCH2CH2 = CN(C)CC*; NBuGly = CCCCNCC(=O)O; Isopentyl = CC(C)CC*; NPrGly = CCCNCC(=O)O; Ethyl(2-OH) = OCC*; Sar = CNCC(=O)O; tBu = CC(C)(C)*; Propyl = CCC*

Test: Caco-2 membrane permeability, improved method as used in the following Examples (96-well, 20 to 24 h preincubation)
Format: in vitro ADME
Details: human, Caco-2, Caco-2
Outline: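 Papp (cm/sec) was derived from LC/MS of basal samples collected 180 min after apical dosing in FaSSIF/HBSS pH 6.0 with 1% DMSO, against a basal HBSS pH 7.4 receiver containing 4% BSA. Three-week Caco-2 cultures were first preincubated with compound in DMEM+FaSSIF at 37 °C for 20–24 h.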

| Structure (SMILES) | Papp A→B at 180 min [×10⁻⁶ cm/s] |
| --- | --- |
| CCCCN1CC(=O)N(C)[C@@H](CCN2CCCC(F)(F)C2)C(=O)N[C@H](C(=O)N2CCCCC2)CC(=O)N(C)[C@@H](C)C(=O)N[C@@H](CC(C)C)C(=O)N(C)[C@@H](CC(C)C)C(=O)N(C)[C@@H](Cc2ccccc2)C(=O)N[C@@H](CC(C)C)C(=O)N(C)[C@@H](Cc2ccccc2)C(=O)N(C)[C@@H](C)C(=O)N[C@@H]([C@@H](C)O)C1=O [pd392] ([NMeA]L[NMeL][NMeF]L[NMeF][NMeA]T[NBuGly][NMeAbu(3,3-F2-piperidino)]D-Piperidide; lactam N-11) | 3.5 |
| CC[C@H]1C(=O)N[C@@H]([C@@H](C)O)C(=O)N(C)CC(=O)N(C)[C@@H](Cc2ccccc2)C(=O)N(C)[C@@H](CC)C(=O)N[C@@H](COC(C)(C)C)C(=O)N(C)[C@@H](CC(C)C)C(=O)N[C@H](C(=O)N2CCCCC2)CC(=O)N(CCc2ccccc2)CC(=O)N(C)[C@@H](CC(C)C)C(=O)N[C@@H](CC(C)C)C(=O)N1C [pd412] ([Gly(NCH2CH2Ph)][NMeL]L[NMeAbu]T[Sar][NMeF][NMeAbu]S(tBu)[NMeL]D-Piperidide; lactam N-11) | 1.5 |
| CCCN1CC(=O)N(C)[C@@H](CC(C)C)C(=O)N[C@@H](COCCN(C)C)C(=O)N(C)[C@@H](Cc2ccccc2)C(=O)N(C)[C@@H](C(C)C)C(=O)N[C@H](C(=O)N2CCCCC2)CC(=O)N[C@H](C(C)C)C(=O)N(C)[C@@H](Cc2ccccc2)C(=O)N[C@@H](CC(C)C)C(=O)N(C)[C@@H](CC(C)C)C(=O)N[C@@H]([C@@H](C)O)C1=O [pd52] ([dV][NMeF]L[NMeL]T[NPrGly][NMeL]S(Me2NCH2CH2)[NMeF][NMeV]D-Piperidide; lactam N-11) | 0.12 |
| CC[C@H](C)[C@H]1C(=O)N[C@@H](COCCO)C(=O)N(C)CC(=O)N(C)[C@@H](CC(C)C)C(=O)N[C@H](C(=O)N2CCCCC2)CC(=O)N(C)[C@@H](C)C(=O)N[C@@H](CC(C)C)C(=O)N(C)[C@@H](CC(C)C)C(=O)N(C)[C@@H](Cc2ccccc2)C(=O)N[C@@H](CC(C)C)C(=O)N(C)[C@@H](Cc2ccccc2)C(=O)N1C [pd499] ([NMeA]L[NMeL][NMeF]L[NMeF][NMeI]S(Ethyl(2-OH))[Sar][NMeL]D-Piperidide; lactam N-11) | 4.7 |
| CC(C)CCOC[C@@H]1NC(=O)[C@H](CCN2CCCC(F)(F)C2)N(C)C(=O)[C@H](Cc2ccccc2)N(C)C(=O)CN(C)C(=O)[C@H]([C@@H](C)O)NC(=O)[C@H](CC(C)C)N(C)C(=O)[C@H](CC(C)C)NC(=O)[C@H](Cc2ccccc2)N(C)C(=O)CN(C)C(=O)C[C@@H](C(=O)N2CCCCC2)NC(=O)[C@H](CC(C)C)N(C)C1=O [pd393] ([Sar][NMeF]L[NMeL]T[Sar][NMeF][NMeAbu(3,3-F2-piperidino)]S(Isopentyl)[NMeL]D-Piperidide; lactam N-11) | 2.5 |
| CC[C@H]1C(=O)N(C)[C@@H](Cc2ccccc2)C(=O)N[C@@H](C)C(=O)N(C)[C@@H](CC(C)C)C(=O)N(C)[C@@H](CC)C(=O)N[C@@H]([C@@H](C)O)C(=O)N(CCOc2ccccc2)CC(=O)N(C)[C@@H](CC(C)C)C(=O)N[C@H](C(=O)N2CCCCC2)CC(=O)N(C)[C@@H](C(C)C)C(=O)N[C@@H](CC(C)C)C(=O)N1C [pd420] ([NMeV]L[NMeAbu][NMeF]A[NMeL][NMeAbu]T[X9][NMeL]D-Piperidide; lactam N-11) | 4.5 |
| CC[C@H](C)[C@@H]1NC(=O)[C@H](Cc2ccccc2)N(C)C(=O)CN(C)C(=O)C[C@@H](C(=O)N2CCCCC2)NC(=O)[C@H](C(C)C)N(C)C(=O)[C@H](CCc2ccccc2Cl)NC(=O)[C@H](CC(C)C)N(C)C(=O)[C@H](CC(C)C)N(C)C(=O)CN(C)C(=O)[C@H]([C@@H](C)O)NC(=O)[C@H](CC(C)C)N(C)C1=O [pd354] ([Sar][NMeF]I[NMeL]T[Sar][NMeL][NMeL][X14][NMeV]D-Piperidide; lactam N-11) | 1.5 |
| CCCOC[C@@H]1NC(=O)[C@H](Cc2ccccc2)N(C)C(=O)[C@H](CC(C)C)N(C)C(=O)[C@H](CC(C)C)NC(=O)[C@H](C)N(C)C(=O)C[C@@H](C(=O)N2CCCCC2)NC(=O)[C@H](CC(C)C)N(C)C(=O)CN(C)C(=O)[C@H]([C@@H](C)O)NC(=O)[C@H](CC(C)C)N(C)C(=O)[C@H](Cc2ccccc2)N(C)C1=O [pd329] ([NMeA]L[NMeL][NMeF]S(Propyl)[NMeF][NMeL]T[Sar][NMeL]D-Piperidide; lactam N-11) | 4.2 |

Same assay, conditions: human, Caco-2, Caco-2 (cm/sec)

| Structure (SMILES) | Papp A→B at 180 min [×10⁻⁶ cm/s] |
| --- | --- |
| CC(C)C[C@@H]1NC(=O)[C@H](Cc2ccccc2)N(C)C(=O)[C@H](C)N(C)C(=O)C[C@@H](C(=O)N2CCCCC2)NC(=O)[C@H](CC(C)C)N(C)C(=O)[C@H](Cc2ccccc2)N(C)C(=O)[C@H](Cc2ccccc2)NC(=O)[C@H](Cc2cscn2)N(C)C(=O)[C@H](C)N(C)C(=O)[C@H](CC(C)C)N(C)C(=O)[C@H]([C@@H](C)O)NC1=O [pd238] ([NMeA][NMeF]LT[NMeL][NMeA][NMeAla(4-thiazolyl)]F[NMeF][NMeL]D-Piperidide; lactam N-11) | 0.088 |
| CC(C)C[C@@H]1NC(=O)[C@H](Cc2ccccc2)N(C)C(=O)[C@H](CC(C)C)N(C)C(=O)[C@@H](C)N(C)C(=O)C[C@@H](C(=O)N2CCCCC2)NC(=O)[C@H](CC(C)C)N(C)C(=O)[C@H](Cc2ccccc2)N(C)C(=O)[C@H]([C@@H](C)O)NC(=O)[C@H](Cc2ccccc2)N(C)C1=O [pd223] ([dNMeA][NMeL][NMeF]L[NMeF]T[NMeF][NMeL]D-Piperidide; lactam N-9) | 1.1 |
| CC(C)C[C@@H]1NC(=O)[C@H](Cc2ccccc2)N(C)C(=O)[C@H](C)N(C)C(=O)C[C@@H](C(=O)N2CCCCC2)NC(=O)[C@H](CC(C)C)N(C)C(=O)[C@H](Cc2ccccc2)N(C)C(=O)[C@H](Cc2ccccc2)NC(=O)[C@H](Cc2cscn2)N(C)C(=O)[C@H](C)N(C)C(=O)[C@H]([C@@H](C)O)NC(=O)[C@H](CC(C)C)N(C)C1=O [pd226] ([NMeA][NMeF]L[NMeL]T[NMeA][NMeAla(4-thiazolyl)]F[NMeF][NMeL]D-Piperidide; lactam N-11) | 0.68 |
| CC(C)C[C@@H]1NC(=O)[C@H](C)N(C)C(=O)C[C@@H](C(=O)N2CCCCC2)NC(=O)[C@H](CC(C)C)N(C)C(=O)CN(C)C(=O)[C@H](Cc2ccc(O)c(F)c2)NC(=O)[C@H](CC(C)C)N(C)C(=O)[C@H](C)N(C)C(=O)[C@H](C)NC(=O)[C@H](Cc2ccccc2)N(C)C(=O)[C@H](CC(C)C)N(C)C1=O [pd120] ([NMeA]L[NMeL][NMeF]A[NMeA][NMeL][Tyr(3-F)][Sar][NMeL]D-Piperidide; lactam N-11) | 0.23 |
| CC(C)C[C@@H]1NC(=O)[C@H](CC(C)C)N(C)C(=O)[C@H](C(C)C)NC(=O)C[C@@H](C(=O)N2CCCCC2)NC(=O)[C@H](CC(C)C)N(C)C(=O)[C@H](Cc2ccccc2)N(C)C(=O)[C@H]([C@@H](C)O)NC(=O)[C@H](Cc2ccc(C(F)(F)F)cc2)NC(=O)[C@H](C)N(C)C1=O [pd145] (V[NMeL]L[NMeA][Phe(4-CF3)]T[NMeF][NMeL]D-Piperidide; lactam N-9) | 1.2 |
| CC[C@@H]1NC(=O)[C@H](C(C)C)N(C)C(=O)[C@@H](C(C)C)NC(=O)C[C@@H](C(=O)N2CCCCC2)NC(=O)[C@H](CC(C)C)N(C)C(=O)[C@H](Cc2cccc(Cl)c2)N(C)C(=O)[C@H](COC(C)(C)C)NC(=O)[C@H](CC(C)C)N(C)C(=O)CN(C)C(=O)[C@H](Cc2cccnc2)NC(=O)[C@H](CC(C)C)N(C)C1=O [pd164] ([dV][NMeV][Abu][NMeL][3Pal][Sar][NMeL]S(tBu)[NMePhe(3-Cl)][NMeL]D-Piperidide; lactam N-11) | 1.6 |
| CC[C@H](C)[C@H]1C(=O)N[C@@H](Cc2ccc(O)cc2)C(=O)N(C)CC(=O)N(C)[C@@H](CC(C)C)C(=O)N[C@H](C(=O)N2CCCCC2)CC(=O)N(C)[C@@H](C)C(=O)N[C@@H](C(C)C)C(=O)N(C)[C@@H](CC(C)C)C(=O)N(C)[C@@H](CC(C)C)C(=O)N[C@@H](C)C(=O)N(C)[C@@H](Cc2ccccc2)C(=O)N1C [pd126] ([NMeA]V[NMeL][NMeL]A[NMeF][NMeI]Y[Sar][NMeL]D-Piperidide; lactam N-11) | 0.42 |
| CC(C)C[C@@H]1NC(=O)[C@H](Cc2ccccc2)N(C)C(=O)[C@H](C)N(C)C(=O)C[C@@H](C(=O)N2CCCCC2)NC(=O)[C@H](C(C)C)N(C)C(=O)[C@H](Cc2ccccc2)N(C)C(=O)[C@H](COC(C)(C)C)NC(=O)[C@H](CC(C)C)N(C)C(=O)CN(C)C(=O)[C@H](Cc2cccnc2)NC(=O)[C@H](CC(C)C)N(C)C1=O [pd197] ([NMeA][NMeF]L[NMeL][3Pal][Sar][NMeL]S(tBu)[NMeF][NMeV]D-Piperidide; lactam N-11) | 3 |
| CC(C)C[C@@H]1NC(=O)[C@H](Cc2ccccc2)N(C)C(=O)[C@@H](C(C)C)NC(=O)C[C@@H](C(=O)N2CCCCC2)NC(=O)[C@H](Cc2ccccc2)N(C)C(=O)[C@H](Cc2ccccc2)N(C)C(=O)[C@H](C(C)C)NC(=O)[C@H](CC(C)C)N(C)C(=O)CN(C)C(=O)[C@H]([C@@H](C)O)NC(=O)[C@H](CC(C)C)N(C)C1=O [pd221] ([dV][NMeF]L[NMeL]T[Sar][NMeL]V[NMeF][NMeF]D-Piperidide; lactam N-11) | 1.1 |

Same assay, conditions: human; Papp, Caco-2 membrane permeability, improved method; read-out: Caco-2

| Structure (SMILES) | Papp A→B at 180 min [×10⁻⁶ cm/s] |
| --- | --- |
| CCCCN1CC(=O)N(C)[C@@H](Cc2ccccc2)C(=O)N(C)[C@@H](CC(C)C)C(=O)N[C@@H](CC(C)C)C(=O)N(C)[C@@H](CC(C)C)C(=O)N[C@H](C(=O)N2CCCCC2)CC(=O)N(C)CC(=O)N(C)[C@@H](CC(C)C)C(=O)N[C@@H](C(C)C)C(=O)N(C)[C@@H](CC(C)C)C(=O)NC(CCc2noc(=O)[nH]2)C1=O (stereo partly drawn) [pd488] ([Sar][NMeL]V[NMeL][X5][NBuGly][NMeF][NMeL]L[NMeL]D-Piperidide; lactam N-11) | 1.6 |
